The test system of data set [1] is human embryonic kidney (HEK) toll-like receptor-3 (TLR3) cells. Put plainly: Bioactivity of poly I:C released from CryogelMA on HEK TLR3 cells. The data set is classed as cell-based. The note with it: in vitro, supernatants over several days, absorbance. The text has this: FIG. 8 is a line graph showing CryogelMA poly I:C release and bioactivity. […] Doing this in the tumor microenvironment stimulates maturation of recruited antigen-presenting cells (APCs) and results in antitumor immunity.

Data set [2] concerns the target CD137 (Homo sapiens, UniProt Q07011). The note with it: several clinical trials, Ascierto et al., 2010; cited from earlier work.
For data set [3], the system named is immune cells. Put plainly: Click alginate cryogel with cytokines/chemokines placed under the skin, screened for immune cell accumulation. The data set is classed as in vivo. The note with it: Cryoclick gels. The text has this: FIG. 12 is a series of photographs showing immune cell accumulation using GM-CSF—DC growth/differentiation factor in the device. FIGS. 12-15 show data using Cryoclick gels. Using a click alginate cryogel, a number of cytokines and chemokines were placed under the skin and screened for resulting activity in terms of immune cell accumulation.

Data set [4] has as its system tumor cells.
Data set [5] relates to human lung cancer and breast cancer. The conditions noted are these: PNAS 2012 109 (24) 9623-9628; cited from earlier work.

The text below walks through data of patent US11786457B2, “Peritumoral and intratumoral materials for cancer therapy” (President and Fellows of Harvard College, priority 2015, dated 2023).

Chain of CD137 (Q07011 24-255): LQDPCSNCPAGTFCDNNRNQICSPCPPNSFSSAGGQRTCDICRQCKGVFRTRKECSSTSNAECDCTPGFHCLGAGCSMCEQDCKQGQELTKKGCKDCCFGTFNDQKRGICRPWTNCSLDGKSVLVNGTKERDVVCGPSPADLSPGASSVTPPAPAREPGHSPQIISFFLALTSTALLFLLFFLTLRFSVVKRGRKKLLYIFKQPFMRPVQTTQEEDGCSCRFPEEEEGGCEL

“polyinosine-polycytidylic acid [poly I:C]”: the “response of HEK TLR3 cells to supernatants” value in data set [1] was “produce a response measured by absorbance”. Regarding BMS-66513: anti-CD137 antibody, in data set [2], the clinical response result was “partial remissions in disease” and the clinical toxicity entry is “liver toxicity”. Consider “IL-15: interleukin-15, T cell/NK cell survival factor”, for which the “immune cell accumulation at gel placed under the skin” value in data set [3] is “accumulation of CD4 and CD8 T cells in the skin”. As to `COc1cccc2c1C(=O)c1c(O)c3c(c(O)c1C2=O)C[C@@](O)(C(=O)CO)C[C@@H]3O[C@H]1C[C@H](N)[C@H](O)[C@H](C)O1` [doxorubicin], the “cell death at the tumor close to the scaffold border” value in data set [4] (day 3 after peritumoral injection, cleaved-caspase 3 staining) is listed as “local cell death is induced”. Besides, the “effect on surrounding normal tissue” value in data set [4] (local delivery from the gels, FIG. 22) is on record as “much less affected”. Regarding `CN(CC(=O)N(Cc1ccc(C2CCCCC2)cc1)c1ccc(C(=O)O)c(O)c1)S(=O)(=O)c1c(F)c(F)c(F)c(F)c1F` [BP-1-102], the “activity against tumors in animals” value in data set [5] is on record as “active”. For the compound “CCL20: Chemokine (C-C motif) ligand 20, DC chemokine”, the “immune cell accumulation at gel placed under the skin” value in data set [3] is reported as “bright DC staining at gel periphery”.
